Source: ChEMBL document CHEMBL4813973, “Discovery of novel N-benzylbenzamide derivatives as tubulin polymerization inhibitors with potent antitumor activities” (Eur J Med Chem, 2021)
Values belong to the compound of their own block, whether it stands above or below them. The source made the active and inactive calls. The calls are words filed in the database; no cut-off is given here.

Experiments:
[1] = Acute toxicity in ICR mouse assessed as animal survival at 409.6 mg/kg, iv measured for 14 days; assay type: organism-based; settings: in vivo, time 14 day
[2] = Acute toxicity in ICR mouse assessed as animal survival at 512 mg/kg, iv measured for 14 days; assay type: organism-based; settings: in vivo, time 14 day
[3] = Aqueous solubility of the compound in aqueous HCl at pH 2 by HPLC-UV analysis; assay type: physicochemical
[4] = Toxicity in ICR mouse xenografted with […] cells assessed as effect on spleen morphological changes at 20 mg/kg/day, iv for 21 days by H and E staining based assay; assay type: organism-based; settings: in vivo, 504 h, time 21 day
[5] = Acute toxicity in ICR mouse assessed as animal survival at 327.7 mg/kg, iv measured for 14 days; assay type: organism-based; settings: in vivo, time 14 day
[6] = Toxicity in ICR mouse xenografted with […] cells assessed as effect on heart morphological changes at 20 mg/kg/day, iv for 21 days by H and E staining based assay; assay type: organism-based; settings: in vivo, 504 h, time 21 day
[7] = Acute toxicity in ICR mouse assessed as animal survival at 800 mg/kg, iv measured for 14 days; assay type: organism-based; settings: in vivo, time 14 day
H22 [8] = assay: Antitumor activity against […] xenografted in ICR mouse assessed as reduction of tumor weight at 20 mg/kg/day, iv for 21 days; assay type: functional; settings: 504 h, time 21 day
[9] = Toxicity in ICR mouse xenografted with […] cells assessed as effect on liver morphological changes at 20 mg/kg/day, iv for 21 days by H and E staining based assay; assay type: organism-based; settings: in vivo, 504 h, time 21 day
H22 [10] = assay: Antitumor activity against […] xenografted in ICR mouse assessed as reduction in tumor growth at 20 mg/kg/day, iv for 21 days; assay type: functional, organism-based; settings: time 21.0 day
[11] = Aqueous solubility of the compound in phosphate buffer at pH 7.4 by HPLC-UV analysis; assay type: physicochemical
[12] = Toxicity in ICR mouse xenografted with […] cells assessed as effect on body weight at 20 mg/kg/day, iv for 21 days; assay type: organism-based; settings: in vivo, 504 h, time 21 day
[13] = Acute toxicity in ICR mouse assessed as animal survival at 640 mg/kg, iv measured for 14 days; assay type: organism-based; settings: in vivo, time 14 day
[14] = Toxicity in ICR mouse xenografted with […] cells assessed as effect on lungs morphological changes at 20 mg/kg/day, iv for 21 days by H and E staining based assay; assay type: organism-based; settings: in vivo, 504 h, time 21 day
[15] = Inhibition of pig brain tubulin polymerisation incubated for 30 mins and measured every 2 mins for 60 mins by spectrophotometric method; assay type: tissue-based, Sus scrofa
[16] = Acute toxicity in iv dosed ICR mouse; assay type: organism-based; settings: in vivo
[17] = Toxicity in ICR mouse xenografted with […] cells assessed as effect on kidney morphological changes at 20 mg/kg/day, iv for 21 days by H and E staining based assay; assay type: organism-based; settings: in vivo, 504 h, time 21 day
H22 [18] = assay: Antitumor activity against […] xenografted in ICR mouse assessed as reduction in tumor weight at 6 mg/kg, iv dosed every other day for 21 days; assay type: functional; settings: 504 h, time 21 day
K562/VCR = assay: Antiproliferative activity against VCR resistant human K562/VCR cells assessed as reduction in cell viability incubated for 72 hrs by MTT assay; assay type: functional, cell-based; settings: k562/vcr
Bel-7402 [19] = assay: Antiproliferative activity against human Bel-7402 cells assessed as reduction in cell viability incubated for 72 hrs by MTT assay; assay type: functional, cell-based; settings: bel-7402
Bel-7402 [20] = assay: Antiproliferative activity against ADR-resistant human Bel-7402 cells assessed as reduction in cell viability incubated for 72 hrs by MTT assay; assay type: functional, cell-based; settings: bel-7402

Structure (SMILES): COc1ccc(CNC(=O)c2cc(F)ccc2N2CCOCC2)cc1OP(=O)([O-])[O-].[Na+].[Na+]
- survival at 336 h [1]: 80%
- survival at 336 h [2]: 70%
- solubility [3]: > 1000 µg/mL
- Activity [4]: Non-Toxic
- survival at 336 h [5]: 90%
- Activity [6]: Non-Toxic
- survival at 336 h [7]: 20%
- inhibition in vivo at 20 mg/kg/day (H22 [8]): 71.4%
- Activity [9]: Non-Toxic
- Activity (H22 [10]): Active
- solubility [11]: > 1000 µg/mL
- Activity [12]: Non-Toxic
- survival at 336 h [13]: 50%
- Activity [14]: Non-Toxic
- IC50 [15]: 6.18 µM
- LD50 [16]: 600 mg/kg
- Activity [17]: Non-Toxic

- IC50 (K562/VCR): Not Active
- IC50 (Bel-7402 [19]): Not Active
- IC50 (Bel-7402 [20]): Not Active
- IC50 (K562): Not Active
Structure (SMILES): CC(=O)O[C@H]1C(=O)[C@@]2(C)[C@H]([C@H](OC(=O)c3ccccc3)[C@]3(O)C[C@H](OC(=O)[C@H](O)[C@@H](NC(=O)c4ccccc4)c4ccccc4)C(C)=C1C3(C)C)[C@]1(OC(C)=O)CO[C@@H]1C[C@@H]2O [PACLITAXEL]
- inhibition in vivo at 6 mg/kg (H22 [18]): 72.7%
